Laboratory results from patent US20090137427A1, “Method for generating hypermutable organisms” (The John Hopkins University School of Medicine, priority 2000, published 2009).

Assays:
Type in all cases: cell-based, human
HCT116 cells = experiment: β-gal positive foci in pCAROF-transfected MMR defective cells exposed to chemical mutagen; settings: 10 μM for 8 hours, 1,000 cells/plate, grown 10 days, triplicate
Excerpt: To enhance the rate of genetic mutations and produce cells with altered genes, RNA expression, or polypeptides, the use of MMR deficiency and chemical mutagens is a powerful tool to generate such diversity. The advantages of using MMR defective cells is that the decrease of this activity renders cells more resistant to the toxic effects of such compounds yet allows for the increase in genetic and phenotypic alterations of a host organism or cell. […] Cells that are genetically defective for MMR such as but not limited to HCT116, DLD-1, etc. or cells such as those described in example 1 and 2 that are made MMR defective by ectopic expression of a dominant negative allele is covered under this invention. Briefly, MMR proficient and deficient cells are incubated with a range (1 nm to 1 mM) of chemical mutagens for 1 hour to 24 hours at 37 C at 5% CO2 in growth medium. After incubation is complete, chemical mutagens are washed from medium and cells are grown in the presence of hypoxanthine, aminopterin, and […] to score for HPRT mutant cells as previously described (Walker, V E et. al. Mutat Res. 17:371-388, 1999.) and known to those skilled in the art. […] After 14 days, the numbers of HAT-resistant colonies are determined by counting under the microscope. […] Cells were grown for 10 days and scored for β-gal activity using methods described in EXAMPLE 1. […]

[1] = tested on: HCT116 cells cotransfected with polyPNP and pC9MLH constructs; experiment: MPD killing assay, MLH1 complementation; settings: 300 μM
Excerpt: The restoration of genetic stability and the subsequent imprint of an altered gene locus or loci is an important invention of this application for producing viable biological products, whereby altered biomolecules, cells or whole organisms with desired altered output traits are made genetically stable for long term use. To generate stable MMR defective cell lines that has or has not been exposed to chemical mutagens and selected for desired genetic changes, the introduction of a complementing MMR gene that can substitute for the mutated endogenous MMR gene locus is taught in this application. […] In this example, a mammalian expression vector is used that encodes for the functional MLH1 polypeptide (pC9MLH1) or an expression vector that encodes for a MLH1 cDNA with a premature stop codon (pC9MLHstop). These expression vectors contain a neomycin (neo) resistance gene that allows for selection of cells containing this vector. […] Cells were selected for 10 days in neo and Hyg and resistant clones were isolated and expanded. Cells were then cultured in the presence of MPD and counted for growth after 10 days. […]
For MPD killing assay, cells were plated at 2×10^4 cell/ml and 1 ml aliquots were plated in 24-well costar tissue culture dishes. […] Cells were grown for 10 days trypsinized and counted on hemocytometer using trypan blue exclusion. […]

HCT116/polyPNP cells = experiment: MPD killing assay; settings: 10 days
Excerpt: (§1) The use of cells with defective MMR repair due to defects of endogenous genes such as but not limited to the HCT116, DLD-1, and HEC-1-A cells lines (ref. 12, 25 and Kondo, et. al. J Biochem 125:818-825, 1999) can be useful for altering the genetic structure of genes to produce commercially viable variant molecules such as novel anti-microbial agents, bioactive growth factors or hormones, altered antibody structures, etc. The utility and value of such a cell is that once an altered gene structure has been produced, the integrity of this gene alteration can be preserved in the cell's genome by making the cell genetically stable via the introduction of a functional complementing MMR gene. […] The polyPNP gene encodes for a non-functional PNP gene. When the poly-A tract is randomly altered by genetic alterations due to defective MMR, the tract is randomly altered, allowing for the production of a functional PNP gene and polypeptide. PNP converts the non-toxic 9-(β-D-2-deoxy-erythro-pento-furanosyl)-6-methyl-purine prodrug (referred to as MPD) substrate to the toxic 6-methyl purine analog (referred to as MP) (Sorscher, E J, et. al. Gene Therapy 1:233-238, 1994). The polyPNP gene was engineered to contain a hemaglutinin epitope tag at the C-terminus to facilitate the detection of the encoded polypeptide via western blot analysis using an anti-HA antibody. The polyPNP gene was cloned into the pCEP4 expression vector, which has a hygromycin resistance (Hyg) gene for selection. A homologous gene called PNP was also made in which an in-frame polyA tract is cloned into the N-terminus of the gene as a positive control for PNP activity. Briefly, the MMR defective HCT116 cell line and the MMR proficient HEK293 cell line were transfected with the polyPNP, the PNP expression vector, or an empty pCEP4 vector. Cells were then selected for Hyg resistance and clones were isolated. Expanded cells were grown in the presence of increasing amounts of MPD (0, 1, 10, 50, 100, 300 μM) for 10 days. After treatment period, cells were counted by hemocytometer and trypan blue exclusion.
(§2) Cells were transfected with PNP and/or MLH1 expression vectors using liposomes following the manufacturer's protocol (Gibco/BRL). Stably transfected cell lines were generated that express empty vector, PNP or polyPNP by transfection followed by hygromycin selection. For complementation experiments, HCT116 cells were transfected with PNP/MLH1, PNP/MLH1stop, polyPNP/MLH1 or polyPNP/MLH1 stop at a 1:1 ratio using 5 μg of each plasmid and cells were selected for hygromycin and neomycin resistance. After 10 days, drug-resistant colonies were observed and picked for analysis.
(§3) For MPD killing assay, cells were plated at 2×10^4 cell/ml and 1 ml aliquots were plated in 24-well costar tissue culture dishes. For killing assays, cells were plated in 0, 1, 10, 50, 100, and 300 μM MPD in triplicate. Cells were grown for 10 days trypsinized and counted on hemocytometer using trypan blue exclusion. Data are presented as a mean+/−SD for each study.

[2] = tested on: HEK293 cells expressing PNP; experiment: MPD killing assay; settings: 50-300 μM, 10 days
Excerpt: as §1, §2, §3

HEK293/polyPNP cells = experiment: MPD killing assay; settings: highest concentration (300 μM), 10 days
Excerpt: as §1, §2, §3

[3] = tested on: HCT116 cells expressing PNP; experiment: MPD killing assay; settings: 50-300 μM, 10 days
Excerpt: as §1, §2, §3

## CCOS(C)(=O)=O [EMS, ethyl methanesulfonate]
HCT116 cells
  number of β-gal positive foci: 205+/−18 per dish

## Cc1ncnc2c1ncn2[C@H]1C[C@H](O)[C@@H](CO)O1 [MPD, 9-(β-D-2-deoxyerythropentofuranosyl)-6-methyl-purine]
[1]; cells expressing MLH1 (pC9MLH1) plus polyPNP
  decrease in total cell growth compared to medium alone: 2%
[1]; cells transfected with MLHstop or empty vector and polyPNP
  reduction in cell growth compared to medium alone: 35%
HCT116/polyPNP cells; 100 μM
  decrease in cell numbers: 20%
HCT116/polyPNP cells; 300 μM
  decrease in cell numbers: 30%
[2]
  growth suppression: 100%
HEK293/polyPNP cells
  decrease in cell growth (in words): no decrease in cell growth
[3]
  growth suppression: 100%
